Source: ChEMBL document CHEMBL1201862, “PubChem BioAssay data set” (2004)
Active and inactive are the calls of the source.

How the values were obtained:
[1] = target: Eukaryotic translation initiation factor 4E (Mus musculus, UniProt P63073); assay: blockers of eIF4G binding by eIF4E – biochemical, TR-FRET, dose response (AID 855); type: functional;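 further: potency for disrupting eIF4E binding to eIF4GI seen as loss of FRET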
[2] = target: Glyceraldehyde-3-phosphate dehydrogenase (Homo sapiens, UniProt P04406)
Chain of Glyceraldehyde-3-phosphate dehydrogenase (P04406 whole entry): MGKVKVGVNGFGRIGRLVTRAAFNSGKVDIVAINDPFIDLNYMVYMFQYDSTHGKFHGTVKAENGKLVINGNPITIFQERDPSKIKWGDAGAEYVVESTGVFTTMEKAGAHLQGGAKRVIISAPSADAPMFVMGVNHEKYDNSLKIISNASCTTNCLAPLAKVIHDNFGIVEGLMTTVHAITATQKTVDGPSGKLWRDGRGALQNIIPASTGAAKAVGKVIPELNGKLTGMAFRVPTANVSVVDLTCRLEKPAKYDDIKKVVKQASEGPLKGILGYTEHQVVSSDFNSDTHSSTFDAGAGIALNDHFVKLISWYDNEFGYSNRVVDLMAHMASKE

[3] = target: T1, Alkaline phosphatase, tissue-nonspecific isozyme (Homo sapiens, UniProt P05186); assay: potency against alkaline phosphatase TNAP – biochemical, luminescent, dose response, SAR follow-up (AID 1056)
T1 sequence (P05186 whole entry): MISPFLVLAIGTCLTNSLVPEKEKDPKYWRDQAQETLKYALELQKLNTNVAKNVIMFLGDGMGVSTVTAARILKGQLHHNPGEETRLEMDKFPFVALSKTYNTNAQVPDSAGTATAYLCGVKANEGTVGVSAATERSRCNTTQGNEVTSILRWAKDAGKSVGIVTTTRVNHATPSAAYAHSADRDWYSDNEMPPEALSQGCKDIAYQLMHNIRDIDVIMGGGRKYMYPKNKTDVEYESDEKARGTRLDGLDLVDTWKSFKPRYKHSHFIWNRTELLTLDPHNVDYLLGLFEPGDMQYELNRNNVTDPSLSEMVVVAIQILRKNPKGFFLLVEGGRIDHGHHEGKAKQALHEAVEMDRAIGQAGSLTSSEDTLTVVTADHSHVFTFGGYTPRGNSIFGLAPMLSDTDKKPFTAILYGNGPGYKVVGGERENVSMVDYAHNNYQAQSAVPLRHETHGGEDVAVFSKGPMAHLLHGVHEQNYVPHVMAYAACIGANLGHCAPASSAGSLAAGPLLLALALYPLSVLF

[4] = Vero E6 cell cytotoxicity, dose response, cytotoxicity control for non-replicating M. tuberculosis project, secondary assay (AID 492998); type: functional, VeroE6; settings: Vero C1008
cells = type: functional
[5] = HepG2 cell cytotoxicity, dose response, cytotoxicity control for non-replicating M. tuberculosis project (AID 489018); type: functional; settings: Mycobacterium tuberculosis
[6] = target: T2, Replicative DNA helicase DnaB (Mycobacterium tuberculosis, UniProt P9WMR3); assay: DnaB intein splicing inhibitors, dose response, biochemical, cell-free fluorescence (AID 449749); type: functional
T2 sequence (P9WMR3 whole entry): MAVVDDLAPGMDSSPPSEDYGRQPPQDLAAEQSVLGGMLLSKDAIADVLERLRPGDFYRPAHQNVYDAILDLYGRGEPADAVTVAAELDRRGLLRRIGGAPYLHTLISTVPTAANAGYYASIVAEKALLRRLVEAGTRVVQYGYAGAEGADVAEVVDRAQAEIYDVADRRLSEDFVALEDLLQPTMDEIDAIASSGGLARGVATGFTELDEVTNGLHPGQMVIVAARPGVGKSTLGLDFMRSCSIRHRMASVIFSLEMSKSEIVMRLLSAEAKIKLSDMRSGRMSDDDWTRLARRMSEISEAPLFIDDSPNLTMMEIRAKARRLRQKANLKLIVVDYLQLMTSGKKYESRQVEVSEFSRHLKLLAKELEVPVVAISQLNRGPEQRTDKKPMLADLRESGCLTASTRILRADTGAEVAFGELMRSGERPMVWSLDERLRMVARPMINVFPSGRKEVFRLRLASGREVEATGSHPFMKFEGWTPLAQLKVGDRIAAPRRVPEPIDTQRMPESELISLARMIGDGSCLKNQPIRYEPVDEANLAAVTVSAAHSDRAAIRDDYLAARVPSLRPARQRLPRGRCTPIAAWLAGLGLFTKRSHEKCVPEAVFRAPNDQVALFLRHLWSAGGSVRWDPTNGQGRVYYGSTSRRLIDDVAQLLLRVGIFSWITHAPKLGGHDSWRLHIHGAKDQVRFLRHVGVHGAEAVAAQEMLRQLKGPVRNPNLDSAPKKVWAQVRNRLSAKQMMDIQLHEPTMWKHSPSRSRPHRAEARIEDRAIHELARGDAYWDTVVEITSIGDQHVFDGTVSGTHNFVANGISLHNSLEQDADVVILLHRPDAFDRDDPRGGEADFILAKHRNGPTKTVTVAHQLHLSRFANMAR

Protein RecA = target: T3, Protein RecA (Mycobacterium tuberculosis, UniProt P9WHJ3); assay: Fluorescence Cell-Free Homogeneous Dose Retest to Identify Inhibitors of RecA-Intein Splicing Activity. [Related pubchem assays (depositor defined):AID2097, AID2223, AID489010, AID492950]; type: functional
T3 sequence (P9WHJ3 whole entry): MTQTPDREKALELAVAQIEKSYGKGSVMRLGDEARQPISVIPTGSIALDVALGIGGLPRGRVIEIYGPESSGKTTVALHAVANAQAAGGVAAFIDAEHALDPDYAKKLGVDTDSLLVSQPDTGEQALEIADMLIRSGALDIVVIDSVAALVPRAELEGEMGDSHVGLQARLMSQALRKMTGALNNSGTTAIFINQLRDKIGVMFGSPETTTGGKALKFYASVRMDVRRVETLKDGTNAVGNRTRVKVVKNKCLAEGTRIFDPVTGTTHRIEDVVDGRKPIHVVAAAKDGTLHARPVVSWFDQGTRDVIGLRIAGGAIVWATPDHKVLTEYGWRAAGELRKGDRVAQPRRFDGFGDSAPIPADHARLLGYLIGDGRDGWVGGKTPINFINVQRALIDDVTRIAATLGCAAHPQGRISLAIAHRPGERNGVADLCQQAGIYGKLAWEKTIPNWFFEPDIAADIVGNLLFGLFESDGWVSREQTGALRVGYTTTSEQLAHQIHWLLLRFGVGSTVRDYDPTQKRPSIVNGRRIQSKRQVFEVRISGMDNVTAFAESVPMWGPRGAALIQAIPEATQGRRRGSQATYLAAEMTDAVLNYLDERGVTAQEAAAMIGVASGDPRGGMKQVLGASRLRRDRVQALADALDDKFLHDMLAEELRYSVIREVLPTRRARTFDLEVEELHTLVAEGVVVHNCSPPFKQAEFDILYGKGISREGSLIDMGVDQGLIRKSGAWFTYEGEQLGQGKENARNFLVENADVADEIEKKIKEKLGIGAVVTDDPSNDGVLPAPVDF

[7] = THP-1 cell cytotoxicity, dose response, cytotoxicity control for non-replicating M. tuberculosis project (AID 489025); type: functional
[8] = target: T4, Tyrosine-protein phosphatase non-receptor type 7 (Homo sapiens, UniProt P35236); type: functional
T4 sequence (P35236 whole entry): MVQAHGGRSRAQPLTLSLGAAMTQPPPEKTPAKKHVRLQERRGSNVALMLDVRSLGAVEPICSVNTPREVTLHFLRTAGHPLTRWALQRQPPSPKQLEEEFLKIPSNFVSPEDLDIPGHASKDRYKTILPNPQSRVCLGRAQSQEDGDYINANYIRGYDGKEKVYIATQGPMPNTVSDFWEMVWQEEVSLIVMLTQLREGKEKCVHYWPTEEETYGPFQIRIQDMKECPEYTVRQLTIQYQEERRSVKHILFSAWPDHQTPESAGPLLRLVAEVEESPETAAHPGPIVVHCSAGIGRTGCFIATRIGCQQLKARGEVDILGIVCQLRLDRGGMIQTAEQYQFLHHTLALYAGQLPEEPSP

Vero [9] = assay: cells; type: functional; settings: Chlorocebus sabaeus
[10] = target: T5, Tyrosine-protein phosphatase non-receptor type 22 (Homo sapiens, UniProt Q9Y2R2); type: functional
T5 sequence (Q9Y2R2 whole entry): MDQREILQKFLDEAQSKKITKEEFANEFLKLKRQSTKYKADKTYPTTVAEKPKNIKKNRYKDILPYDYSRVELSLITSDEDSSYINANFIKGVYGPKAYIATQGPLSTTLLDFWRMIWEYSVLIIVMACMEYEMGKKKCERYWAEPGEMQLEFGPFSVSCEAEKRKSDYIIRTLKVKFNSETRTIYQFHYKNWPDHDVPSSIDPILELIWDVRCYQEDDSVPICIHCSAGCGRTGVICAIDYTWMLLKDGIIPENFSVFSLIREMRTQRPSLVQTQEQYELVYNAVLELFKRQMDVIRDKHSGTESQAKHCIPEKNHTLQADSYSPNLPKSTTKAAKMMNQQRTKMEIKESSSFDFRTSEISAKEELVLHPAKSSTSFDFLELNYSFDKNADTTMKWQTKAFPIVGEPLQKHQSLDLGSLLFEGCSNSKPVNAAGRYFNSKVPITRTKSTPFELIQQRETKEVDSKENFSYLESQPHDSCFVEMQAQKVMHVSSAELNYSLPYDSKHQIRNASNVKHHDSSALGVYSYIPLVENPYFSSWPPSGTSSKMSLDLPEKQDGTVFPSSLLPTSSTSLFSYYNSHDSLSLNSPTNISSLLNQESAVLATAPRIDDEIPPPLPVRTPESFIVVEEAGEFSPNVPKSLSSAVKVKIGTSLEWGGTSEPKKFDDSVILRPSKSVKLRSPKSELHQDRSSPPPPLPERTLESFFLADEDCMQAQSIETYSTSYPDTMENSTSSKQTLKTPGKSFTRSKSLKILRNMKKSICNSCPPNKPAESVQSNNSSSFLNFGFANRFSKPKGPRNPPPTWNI

[11] = viability of uninfected HEp-2 cells – cell-based, HTS, cytotoxicity control for RSV inhibitor project, dose response (AID 2410); type: functional; settings: human respiratory syncytial virus
Vero [12] = assay: cells; type: functional, cell-based; settings: Chlorocebus sabaeus
[13] = target: T5, Tyrosine-protein phosphatase non-receptor type 22; type: functional; remark: listed apart in the source
[14] = target: Voltage-dependent T-type calcium channel subunit alpha-1H (Homo sapiens, UniProt O95180); type: functional;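 further: channel activity triggered by adding a high calcium stimulation buffer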
Chain of Voltage-dependent T-type calcium channel subunit alpha-1H (O95180 whole entry): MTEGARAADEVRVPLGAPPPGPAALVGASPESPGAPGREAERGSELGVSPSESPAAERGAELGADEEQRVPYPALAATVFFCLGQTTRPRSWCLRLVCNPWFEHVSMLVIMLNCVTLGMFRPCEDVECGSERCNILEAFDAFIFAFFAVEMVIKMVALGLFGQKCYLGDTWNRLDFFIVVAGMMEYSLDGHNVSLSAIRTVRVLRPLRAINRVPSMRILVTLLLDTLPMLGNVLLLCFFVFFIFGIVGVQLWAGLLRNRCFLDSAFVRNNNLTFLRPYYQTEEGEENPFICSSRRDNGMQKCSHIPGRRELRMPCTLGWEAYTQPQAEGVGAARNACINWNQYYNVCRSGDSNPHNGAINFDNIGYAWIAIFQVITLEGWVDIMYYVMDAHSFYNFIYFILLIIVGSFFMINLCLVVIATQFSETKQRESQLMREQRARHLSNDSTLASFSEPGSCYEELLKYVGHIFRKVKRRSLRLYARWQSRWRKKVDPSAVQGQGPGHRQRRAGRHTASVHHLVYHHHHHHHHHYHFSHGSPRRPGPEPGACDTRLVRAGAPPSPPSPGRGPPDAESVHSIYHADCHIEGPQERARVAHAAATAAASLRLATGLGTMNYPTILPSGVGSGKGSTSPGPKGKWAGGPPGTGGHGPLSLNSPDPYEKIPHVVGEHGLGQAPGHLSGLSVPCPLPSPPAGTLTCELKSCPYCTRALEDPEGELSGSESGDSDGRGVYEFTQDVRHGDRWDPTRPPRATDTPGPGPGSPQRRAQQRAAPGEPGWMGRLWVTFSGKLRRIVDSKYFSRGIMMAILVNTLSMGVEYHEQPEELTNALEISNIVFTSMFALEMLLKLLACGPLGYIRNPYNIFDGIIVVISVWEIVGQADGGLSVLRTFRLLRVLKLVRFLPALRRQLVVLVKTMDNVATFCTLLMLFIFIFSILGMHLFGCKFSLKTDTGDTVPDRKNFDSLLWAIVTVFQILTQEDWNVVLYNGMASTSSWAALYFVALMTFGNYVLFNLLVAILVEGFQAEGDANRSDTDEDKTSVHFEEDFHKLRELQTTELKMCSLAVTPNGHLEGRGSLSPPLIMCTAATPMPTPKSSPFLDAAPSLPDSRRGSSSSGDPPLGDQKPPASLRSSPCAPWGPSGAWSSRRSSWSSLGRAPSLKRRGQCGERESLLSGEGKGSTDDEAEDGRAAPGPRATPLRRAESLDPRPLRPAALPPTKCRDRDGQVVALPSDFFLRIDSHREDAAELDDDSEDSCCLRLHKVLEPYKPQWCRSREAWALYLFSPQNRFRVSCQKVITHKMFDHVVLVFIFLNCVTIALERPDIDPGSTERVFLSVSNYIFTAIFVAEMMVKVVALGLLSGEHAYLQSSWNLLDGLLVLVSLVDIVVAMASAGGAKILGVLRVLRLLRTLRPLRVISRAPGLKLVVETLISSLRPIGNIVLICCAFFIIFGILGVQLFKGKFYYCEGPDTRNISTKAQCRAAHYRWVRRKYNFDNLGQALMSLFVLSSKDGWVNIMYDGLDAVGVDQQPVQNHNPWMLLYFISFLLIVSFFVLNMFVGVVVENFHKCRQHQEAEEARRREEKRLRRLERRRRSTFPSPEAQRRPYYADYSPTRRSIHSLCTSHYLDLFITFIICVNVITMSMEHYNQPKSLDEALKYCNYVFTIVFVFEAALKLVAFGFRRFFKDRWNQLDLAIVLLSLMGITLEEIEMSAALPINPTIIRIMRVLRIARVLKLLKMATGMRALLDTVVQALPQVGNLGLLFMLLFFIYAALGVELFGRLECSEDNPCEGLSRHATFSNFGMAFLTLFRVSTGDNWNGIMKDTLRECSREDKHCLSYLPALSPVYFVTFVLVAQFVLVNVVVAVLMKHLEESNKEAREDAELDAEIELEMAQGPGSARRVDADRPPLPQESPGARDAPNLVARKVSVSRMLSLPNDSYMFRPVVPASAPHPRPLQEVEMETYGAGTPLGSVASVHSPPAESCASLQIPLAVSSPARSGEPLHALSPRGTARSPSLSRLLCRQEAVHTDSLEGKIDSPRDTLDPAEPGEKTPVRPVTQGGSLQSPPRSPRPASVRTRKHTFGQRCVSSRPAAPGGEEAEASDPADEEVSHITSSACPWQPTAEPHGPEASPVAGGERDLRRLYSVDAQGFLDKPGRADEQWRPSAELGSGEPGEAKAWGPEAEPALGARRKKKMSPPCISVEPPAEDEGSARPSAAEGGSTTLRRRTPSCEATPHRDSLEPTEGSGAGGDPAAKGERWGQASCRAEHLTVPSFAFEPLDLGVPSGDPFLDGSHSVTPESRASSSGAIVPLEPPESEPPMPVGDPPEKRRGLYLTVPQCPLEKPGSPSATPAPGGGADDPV

Chain of Eukaryotic translation initiation factor 4E (P63073 whole entry): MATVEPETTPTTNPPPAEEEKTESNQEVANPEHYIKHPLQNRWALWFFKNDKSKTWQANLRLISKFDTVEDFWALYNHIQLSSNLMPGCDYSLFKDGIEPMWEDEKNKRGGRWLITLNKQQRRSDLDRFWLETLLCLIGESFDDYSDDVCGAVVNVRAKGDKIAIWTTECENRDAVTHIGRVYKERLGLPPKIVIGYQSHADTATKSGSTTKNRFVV

Compound: Cc1ccc(N2C(=O)c3ccccc3C2(O)c2ncc[nH]2)cc1 (centres undefined)
- IC50 [1]: > 64 µM (inactive)

Compound: COC(=O)c1cc(-c2cc(F)c(F)cc2F)n[nH]1
- IC50 [2]: > 10 µM (inconclusive)
- IC50 [3]: 1.07 µM (active)

Compound: Cn1cnc([N+](=O)[O-])c1S(=O)(=O)c1cccc(Cl)c1
- CC50 [4]: 8.33 µM (active)
- IC50 (cells): 5.88 µM (active)
- CC50 [5]: 13 µM (active)
- AC50 [6]: 27.7 µM (active)
- EC50 (Protein RecA): 15.8 µM (active)
- CC50 [7]: 15.5 µM (active)

Compound: CCOc1ccccc1-c1cc(C(=O)N/N=C/c2ccc(O)c(OC)c2)c2ccccc2n1
- IC50 [8]: > 79.4 µM (inactive)
- CC50 (Vero [9]): > 25 µM (active)
- IC50 [10]: > 79.4 µM (inactive)
- CC50 [11]: 26.7 µM (active)
- IC50 (Vero [12]): > 25 µM (active)
- IC50 [13]: > 79.4 µM (inactive)

Compound: CCCCOc1ccc(-c2cc(C(=O)OC)[nH]n2)cc1
- IC50 [2]: > 100 µM (not active)
- IC50 [3]: 0.912 µM (active)

Compound: CCn1c(CSc2nc3ccccc3s2)nc2ccccc21
- EC50 [14]: 5.73 µM (active)

Compound: O=C(CCCOc1ccccc1)N1CCN(c2ccccc2)CC1
- EC50 [14]: 13.9 µM (active)
